Series [1] addresses T1, Prp8 intein (Cryptococcus gattii, UniProt E6R027). The experiment in a line: Split nanoluciferase NnLuc-Prp8 intein splicing assay. The class given is biochemical. Here is the method:
(§1) The constructs for Cys-free (Cf) GFP-Prp8 and Cys-free nanoluciferase NnLuc-Prp8 were codon-optimized, synthesized, and cloned into the pET28a vector using the NcoI and XhoI sites by Gene Universal (Gene Universal, Newark Del.). […] The expression, refolding and purification of the CfGFP-Prp8 and NnLuc-Prp8 fusion proteins were carried out as described previously. […] Microbes. Infect.
Split luciferase RLuc-Prp8 and NnLuc-Prp8 intein splicing assays—The split RLuc-Prp8 intein splicing assay was carried out and monitored using a Veritas luminometer, as described previously. […] Microbes. Infect. […] For NnLuc-Prp8 intein splicing assay, the NnLuc-prp8 is diluted in assay buffer (50 mM Tris, 0.1% BSA, 1 mM EDTA, pH 7.4) and 50 ul is added to each well in 96 well black plates. Test molecules or the solvent was added and incubated for 30 to 60 min. A splicing inducer TCEP (50 ul, 100 μM) is added and incubated for 24 h. Luciferase substrate (Furimazine, 25 ul 1:10,000 diluted) is added and luminescence is read using a luminescence reader. IC50 is calculated using Graphpad prism.

Series [2] has as its target T1, Prp8 intein. Description: Split Cys-free (Cf) GFP-Prp8 intein splicing assay. The class given is biochemical. The settings on record: read-out: IC50 CfGFP-Prp8 (converted). Here is the method:
as §1
Split GFP-Prp8 and CJGFP-Prp8 intein splicing assays—Using black and clear bottom 96-well plates, the DPNB-treated, -refolded and -concentrated GFP-Prp8 or CfGFP-Prp8 fusion protein (0.5 μM) was incubated with compounds or Dimethylsulfoxide (DMSO) solvent control for 30 min at 25° C. in a 100 μl intein splicing buffer (20 mM Bis-tris propane, 0.5 M NaCl, 0.5 M arginine, 1 mM EDTA, and 0.05% CHAPS). Then 100 μl 2×TCEP was added to a final concentration of 20 μM. The reactions were incubated at 25° C. overnight. […] Two readings were taken, one prior to addition of TCEP (I0) and one after incubation overnight with TCEP (If). Fluorescence/luminescence differences (ΔFluorescence or ΔLuminescence) were defined as If−I0 for each well. […] DMSO control served as 100% splicing activity.

A further series is described as follows: in vitro. The class given is cell-based, human. The settings on record: human, CC50 A549. Here is the method: Cytotoxicity—Cytotoxicity assays were carried out using human lung carcinoma cell line A549, as described (Chen et al., “Selective Inhibition of the West Nile Virus Methyltransferase by Nucleoside Analogs,” Antiviral Research 97(3):232-239 (2013), which is hereby incorporated by reference in its entirety). Briefly, the A549 cells (5×10^3) were incubated with/without compounds in a 96-well plate at 37° C. for 48 h. Cell viability was determined using the MTT assay (ATCC) as was described previously (Chen et al., “Selective Inhibition of the West Nile Virus Methyltransferase by Nucleoside Analogs,” Antiviral Research 97(3):232-239 (2013) and Brecher et al., “Identification and Characterization of Novel Broad-Spectrum Inhibitors of the Flavivirus Methyltransferase,” ACS Infectious Diseases 1(8):340-349 (2015), both of which are hereby incorporated by reference in their entirety). N=3.
Cytotoxicity—Cytotoxicity assays were carried out using human lung carcinoma cell line A549, as described. Chen et al., “Selective Inhibition of the West Nile Virus Methyltransferase by Nucleoside Analogs,” Antiviral Res. 97:232-9 (2013), which is hereby incorporated by reference in its entirety. Briefly, the A549 cells (5×10^3) were incubated with/without compounds in a 96-well plate at 37° C. for 48 h. Cell viability was determined using the MTT assay (ATCC) as was described previously (Chen et al., “Selective Inhibition of the West Nile Virus Methyltransferase by Nucleoside Analogs,” Antiviral Research 97(3):232-239 (2013) and Brecher et al., “Identification and Characterization of Novel Broad-Spectrum Inhibitors of the Flavivirus Methyltransferase,” ACS Infectious Diseases 1(8):340-349 (2015), both of which are hereby incorporated by reference in their entirety). N=3.

Another series deals with C. neoformans H99 strain. Description: Fungal susceptibility test, broth microdilution MIC. The class given is cell-based, Cryptococcus neoformans. The following applies: Cryptococcus neoformans, H99STRAIN; C. neoformans H99, microbroth dilution; read-out: MIC H99. Here is the method: Fungal susceptibility test—The fungal susceptibility test was carried out with a compound concentration series as described. […] The broth microdilution method was used to determine the compound MIC values against C. neoformans.
Fungal susceptibility test—The fungal susceptibility test was carried out with a compound concentration series as described. […] Microbes. Infect. […] The broth microdilution method was used to determine the compound MIC values against C. neoformans.
(In general: Broth dilution looks for growth in wells or tubes with falling amounts of substance.)

≈ marks a conversion by molar mass, not a printed value.

T1 sequence (E6R027 entry or part of it): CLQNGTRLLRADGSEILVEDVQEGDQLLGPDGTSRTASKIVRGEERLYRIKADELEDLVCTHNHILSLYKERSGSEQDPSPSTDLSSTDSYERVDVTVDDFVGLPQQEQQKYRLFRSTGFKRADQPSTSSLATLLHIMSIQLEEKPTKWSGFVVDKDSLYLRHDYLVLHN

One may read the IC50 as the point on the concentration scale where inhibition reaches its midpoint. By CC50 is commonly meant the concentration that lowers cell viability or growth by half. The term MIC denotes the lowest concentration that inhibits growth of the organism. Regarding `O=C(Nc1ccccc1F)c1nnsc1S(=O)(=O)c1ccc(Cl)cc1` [JMX872, 5-((4-Chlorophenyl)sulfonyl)-N-(2-fluorophenyl)-1,2,3-thiadiazole-4-carboxamide], the half-maximal inhibitory concentration (IC50) is 31.8 µM on Prp8 intein [1] and 28.3 µM on Prp8 intein [2]. The CC50 at 48 h in “in vitro” was 162 µM. The MIC in the series with C. neoformans H99 strain was > 50 µM.
In the case of `O=C(Nc1ccc(F)c(F)c1)c1nnsc1S(=O)(=O)c1ccc(Cl)cc1` [JMX876, 5-((4-Chlorophenyl)sulfonyl)-N-(3,4-difluorophenyl)-1,2,3-thiadiazole-4-carboxamide], the IC50 on Prp8 intein [1] was 22 µM; at Prp8 intein [2], 33.5 µM. For the same compound, in “in vitro”, the midpoint of cytotoxicity, the CC50 at 48 h, lay at 163 µM. In the series with C. neoformans H99 strain, the MIC amounted to 3.12 µM (≈ 1.3 µg/mL).
`Cc1ccc(NC(=O)c2nnsc2S(=O)(=O)c2ccc(Cl)cc2)cc1` [JMX1033, 5-((4-chlorophenyl)sulfonyl)-N-(p-tolyl)-1,2,3-thiadiazole-4-carboxamide]: the half-maximal inhibitory concentration (IC50) is 45.9 µM against Prp8 intein [1] and 35.2 µM at Prp8 intein [2]. In the series “in vitro”, it took 156 µM to reach half-maximal cytotoxicity (CC50 at 48 h). For the same compound, in the series on C. neoformans H99 strain, the MIC is > 50 µM.
The matching figures for `Cc1ccc(NC(=O)c2nnsc2[S+]([O-])c2ccc(Cl)cc2)cc1` (stereo not shown) [JMX1033-2]: 3.8 µM, 47.3 µM, 74.6 µM and > 50 µM.
For the compound `O=C(Nc1ccc(Br)cc1)c1nnsc1S(=O)(=O)c1ccc(Cl)cc1` [JMX1034, N-(4-Bromophenyl)-5-((4-chlorophenyl)sulfonyl)-1,2,3-thiadiazole-4-carboxamide], the IC50 on Prp8 intein [1] is 15.4 µM; at Prp8 intein [2], 33.1 µM. In the series “in vitro”, it took 84.8 µM to reach half-maximal cytotoxicity (CC50 at 48 h). Also, in the series on C. neoformans H99 strain, the MIC was > 50 µM.
For the compound `O=C(Nc1ccccc1)c1nnsc1S(=O)(=O)c1ccc(Cl)cc1` [JMX1035, 5-((4-Chlorophenyl)sulfonyl)-N-phenyl-1,2,3-thiadiazole-4-carboxamide], the IC50 was 33.9 µM against Prp8 intein [1] and 38.4 µM at Prp8 intein [2]. This compound also yielded a half-maximal cytotoxic concentration (CC50) at 48 h in “in vitro” of 84.1 µM. In the series with C. neoformans H99 strain, the minimum inhibitory concentration (MIC) was found to be 6.25 µM (≈ 2.37 µg/mL).
Take `O=C(Nc1cc(F)cc(Cl)c1)c1nnsc1S(=O)(=O)c1ccc(Cl)cc1` [JMX1036, N-(3-Chloro-5-fluorophenyl)-5-((4-chlorophenyl)sulfonyl)-1,2,3-thiadiazole-4-carboxamide]: the IC50 on Prp8 intein [1] is 21.4 µM; on Prp8 intein [2], 32.9 µM. Further, the half-maximal cytotoxic concentration (CC50) at 48 h in the series “in vitro” stood at 70.9 µM. For the same compound, in the series on C. neoformans H99 strain, the minimal inhibitory concentration (MIC) is 1.56 µM (≈ 0.674 µg/mL).
In the case of `O=C(Nc1ccc(F)c(Cl)c1)c1nnsc1S(=O)(=O)c1ccc(Cl)cc1` [JMX1037, N-(3-Chloro-4-fluorophenyl)-5-((4-chlorophenyl)sulfonyl)-1,2,3-thiadiazole-4-carboxamide], the values for the IC50 on Prp8 intein [1] and on Prp8 intein [2] were 14.1 µM and 31.4 µM, respectively. Moreover, the midpoint of cytotoxicity in “in vitro”, the CC50 at 48 h, lay at 63.2 µM. For the same compound, in the series on C. neoformans H99 strain, the MIC was determined as 25 µM (≈ 10.8 µg/mL).
Turning to `O=C(Nc1cc(F)cc(F)c1)c1nnsc1S(=O)(=O)c1ccc(Cl)cc1` [JMX1038, 5-((4-Chlorophenyl)sulfonyl)-N-(3,5-difluorophenyl)-1,2,3-thiadiazole-4-carboxamide], the values for the IC50 at Prp8 intein [1] and on Prp8 intein [2] were 37.4 µM and 37.1 µM, respectively. The midpoint of cytotoxicity in the series “in vitro”, the CC50 at 48 h, lay at 54.2 µM. Besides, the minimal inhibitory concentration (MIC) in the series with C. neoformans H99 strain is > 50 µM.
As to `O=C(Nc1cc(F)cc(C(F)(F)F)c1)c1nnsc1S(=O)(=O)c1ccc(Cl)cc1` [JMX1040, 5-((4-chlorophenyl)sulfonyl)-N-(3-fluoro-5-(trifluoromethyl)phenyl)-1,2,3-thiadiazole-4-carboxamide], the values for the IC50 at Prp8 intein [1] and on Prp8 intein [2] were 20.6 µM and 32.8 µM, respectively. This compound also gave a cytotoxic concentration (CC50) at 48 h in the series “in vitro” of 56.3 µM. In addition, in the series with C. neoformans H99 strain, the minimum inhibitory concentration (MIC) was found to be 3.12 µM (≈ 1.45 µg/mL).
Take `O=C(Nc1cc(C(F)(F)F)cc(C(F)(F)F)c1)c1nnsc1S(=O)(=O)c1ccc(Cl)cc1` [JMX1041, N-(3,5-Bis(trifluoromethyl)phenyl)-5-((4-chlorophenyl)sulfonyl)-1,2,3-thiadiazole-4-carboxamide]: the IC50 was 18.5 µM against Prp8 intein [1] and 37.9 µM at Prp8 intein [2]. The same compound yielded a cytotoxic concentration (CC50) at 48 h in the series “in vitro” of 66.7 µM. Besides, the MIC in the series with C. neoformans H99 strain was > 50 µM.
Consider `O=C(Nc1ccc(C(F)(F)F)cc1Cl)c1nnsc1S(=O)(=O)c1ccc(Cl)cc1` [JMX1042, N-(2-Chloro-4-(trifluoromethyl)phenyl)-5-((4-chlorophenyl)sulfonyl)-1,2,3-thiadiazole-4-carboxamide], for which the IC50 at Prp8 intein [1] is 10.9 µM; on Prp8 intein [2] it was 41.5 µM. In “in vitro”, the 50% cytotoxic concentration (CC50) at 48 h was 98.7 µM. The MIC with C. neoformans H99 strain is > 50 µM.
Taken in the same sequence, the figures for `O=C(Nc1ccc([N+](=O)[O-])cc1F)c1nnsc1S(=O)(=O)c1ccc(Cl)cc1` [JMX1043, 5-((4-Chlorophenyl)sulfonyl)-N-(2-fluoro-4-nitrophenyl)-1,2,3-thiadiazole-4-carboxamide] were 19.6 µM, 38.1 µM, 66.9 µM and > 50 µM.
In the case of `O=C(Nc1cc(F)c(F)c(F)c1)c1nnsc1S(=O)(=O)c1ccc(Cl)cc1` [JMX1044, 5-((4-Chlorophenyl)sulfonyl)-N-(3,4,5-trifluorophenyl)-1,2,3-thiadiazole-4-carboxamide], the results for the IC50 against Prp8 intein [1] and at Prp8 intein [2] were 16.3 µM and 31.8 µM, respectively. In the series “in vitro”, this compound returned a CC50 at 48 h of 47.8 µM. For the same compound, the minimum inhibitory concentration (MIC) in the series with C. neoformans H99 strain is > 50 µM.
On to `O=C(Nc1cc(F)c(F)c(F)c1)c1nnsc1[S+]([O-])c1ccc(Cl)cc1` (stereo not shown) [JMX1044-2, 5-((4-Chlorophenyl)sulfinyl)-N-(3,4,5-trifluorophenyl)-1,2,3-thiadiazole-4-carboxamide], for which the IC50 against Prp8 intein [1] is 4.4 µM; on Prp8 intein [2], 26.9 µM. Also, half-maximal cytotoxicity in the series “in vitro” (CC50 at 48 h) was put at 47.5 µM. In addition, in the series on C. neoformans H99 strain, the minimum inhibitory concentration (MIC) was > 50 µM.
For `O=C(Nc1c(F)cc(F)cc1F)c1nnsc1S(=O)(=O)c1ccc(Cl)cc1` [JMX1045, 5-((4-Chlorophenyl)sulfonyl)-N-(2,4,6-trifluorophenyl)-1,2,3-thiadiazole-4-carboxamide], the values for the IC50 against Prp8 intein [1] and at Prp8 intein [2] were 15.9 µM and 34.3 µM, respectively. This compound also had a CC50 at 48 h in “in vitro” of 47.9 µM. Moreover, in the series with C. neoformans H99 strain, the minimum inhibitory concentration (MIC) was > 50 µM.
With `O=C(Nc1c(F)cc(F)cc1F)c1nnsc1[S+]([O-])c1ccc(Cl)cc1` (stereo not shown) [JMX1045-2, 5-((4-Chlorophenyl)sulfinyl)-N-(2,4,6-trifluorophenyl)-1,2,3-thiadiazole-4-carboxamide], the IC50 on Prp8 intein [1] was 8.6 µM; on Prp8 intein [2], 27.4 µM. Further, half-maximal cytotoxicity in the series “in vitro” (CC50 at 48 h) was put at 61 µM. In addition, in the series with C. neoformans H99 strain, the MIC turned out to be 3.12 µM (≈ 1.3 µg/mL).
Taken in the same sequence, the figures for `O=C(Nc1ccc(Cl)c(F)c1)c1nnsc1S(=O)(=O)c1ccc(Cl)cc1` [JMX1046, N-(4-Chloro-3-fluorophenyl)-5-((4-chlorophenyl)sulfonyl)-1,2,3-thiadiazole-4-carboxamide] were 20.1 µM, 34.1 µM, 145 µM and > 50 µM.
Taken in the same sequence, the figures for `O=C(Nc1ccc(Cl)c(F)c1)c1nnsc1[S+]([O-])c1ccc(Cl)cc1` (stereo not shown) [JMX1046-2, N-(4-Chloro-3-fluorophenyl)-5-((4-chlorophenyl)sulfinyl)-1,2,3-thiadiazole-4-carboxamide] were 7.5 µM, 32.2 µM, 149 µM and 1.56 µM (≈ 0.649 µg/mL).

Source of the values: patent US20230233533A1, “COMPOSITIONS, METHODS OF TREATING AND PREVENTING FUNGAL INFECTIONS, AND METHODS OF INHIBITING PRP8 INTEIN EXPRESSION” (Health Research, Inc., priority 2020, published 2023).
